Laboratory results reported in patent US20130142784A1 (The Board of Trustees of the University of Illinois, priority 2010, published 2013).
Ends that are not written are not given here.

What was measured:
[1] = tested on: GATA-3 promoter; test: ChIP assay, DNMT3b binding; assay type: cell-based, human; settings: compared with control siRNA
Description: (§1) The mouse GATA-3 promoter contains three FoxM1 consensus sequences within 2 kb of the transcriptional start site. Whether FoxM1 directly regulated GATA-3 at the RNA level was investigated using chromatin immunoprecipitation (ChIP) assay. Cells were fixed in 1% formaldehyde for 10 minutes to allow crosslinking and then quenched with […] glycine. For in vivo ChIP assays, single cell suspensions were generated using collagenase/hyaluronidase followed by fixing. Cells were collected and lysed in SDS lysis buffer (1% SDS, 10 mM EDTA, 50 mM Tris pH 8, protease and phosphatase inhibitors). Lysate was sonicated, pre-cleared, and incubated with antibodies against GFP (Clontech, JL-8), GATA-3 (Santa Cruz HG3-31), FoxM1 (Major et al., 2004, “Forkhead box M1B transcriptional activity requires binding of Cdk-cyclin complexes for phosphorylation-dependent recruitment of p300/CBP coactivators” Mol Cell Biol 24: 2649-61), DNMT3b (Imgenex 52A1018), or Rb (Cell Signaling, 4H1) followed by purification with Protein-A and Protein-G Sepharose beads in the presence of salmon sperm DNA (Upstate). Beads were washed and DNA extracted using a PCR purification kit (Qiagen). PCR products were visualized by gel electrophoresis or analyzed using SYBR Green (Bio-Rad), normalized to the IgG control (Santa Cruz Biotechnology).
DNMT3b has been specifically implicated in mammary tumor biology. […]

[2] = tested on: GATA-3 promoter; test: ChIP assay, Rb binding; assay type: cell-based, human; settings: compared with control siRNA
Description: as §1

[3] = tested on: SKBR3 resistant cells; test: cell number after FoxM1 siRNA knockdown and HERCEPTIN; assay type: cell-based, human; settings: in conjunction with HERCEPTIN
Description: The source of resistance in these lines was not uniform, as an increase in phosphorylated Akt was only observed in SKBR3 cells. FoxM1 levels in parental and resistant lines were assayed by western blot analysis. Extracts were prepared in lysis buffer containing 1 mM EDTA, 0.15M NaCl, 0.05M Tris-HCl pH 7.5, and 0.5% Triton-X. Phosphatate Inhibitor Cocktail Set II (Calbiochem) and protease inhibitor (Roche) were added before each experiment using the rabbit polyclonal antibody referenced above. Quantification was performed using Image J software (NIH).
Additionally, levels of cell cycle regulators, Polo-like Kinase 1 (1.5-fold) and Cyclin B1 (16.6-fold) were amplified in the resistant line as compared to the parental control line (FIG. 3B). GAPDH is used as a loading control to ensure that the same amount of RNA was added to each reaction. All bands are normalized to GAPDH bands from the same sample and then normalized values from parental and resistant cells can be compared. […] The control (5′ […] 3′, SEQ ID NO:12) and FoxM1 targeting siRNA (5′ […] 3′, SEQ ID NO:9) were both from Dharmacon, and purified using standard desalting methods. Prior to transfection, plates are washed and cells are placed in serum-free media. siRNA was added to a final concentration of 7.5 pm to each plate using Lipofectamine 2000 (Invitrogen) transfection. […]

[4] = tested on: cells with HER2/ErbB2 amplification; settings: on average; cited from earlier work
[5] = tested on: polymerized and soluble tubulin fractions of SKBR3-pBabe and SKBR3-FoxM1 expressing lines; test: polymerized vs soluble tubulin fractionation and western blot; assay type: cell-based, human
Description: In addition, the possibility that FoxM1 induced altered microtubule dynamics was investigated. Paclitaxel has been known to stabilize tubulin, and thus the ratio of polymerized to soluble microtubule fractions was compared. Cell lysates of SKBR3-pBabe and SKBR3-FoxM1 expressing lines untreated or treated with paclitaxel were fractionated to obtain polymerized and soluble tubulin fractions. […] Briefly, cells were seeded at 80% confluency in 24-well plates, collected in hypotonic buffer (1 mM MgCl2, 2 mM EGTA, 0.5% Nonidet P-40, 20 mM Tris-HCl pH 6.8) and centrifuged for 10 minutes at room temperature (14,000 rpm). The supernatant was used as the soluble fraction while the pellet was used as the polymerized fraction.

[6] = tested on: SKBR3 cells; test: cell viability, CellTiter-Glo Luminescent assay, paclitaxel; assay type: cell-based, human; settings: for IC50: Homo sapiens, TAXOL 24 hours; for cells survived: 0.1 μM, seven days
Description: After seven days of treatment in a low dose of paclitaxel (TAXOL) (0.1 μM), only 25% of SKBR3-pBabe cells survived, while nearly 50% of SKBR3-FoxM1 cells survived (FIG. 4A).

[7] = tested on: hepatocellular carcinoma cells; settings: mouse; cited from earlier work
[8] = tested on: MDA-MB-453 resistant cells; test: colony forming assay, ARF-derived peptide and trastuzumab; assay type: cell-based, human; settings: with trastuzumab; peptide 2 μM
Description: (§2) FIGS. 6A and 6B are graphs showing quantitative colony forming assay of parental or resistant SKBR3 and MDA-MB-453 cells treated with either ARF-peptide or mutant peptide (2 μM). […] Also shown below the graphs are images of representative wells of cells from such colony-forming assays.
(§3) The cells were maintained in HERCEPTIN thereafter. […] Quantification was done using Adobe Photoshop.
(§4) Studies have shown that FoxM1 is inhibited by a small peptide that contains a 19-amino acid region of the p19ARF protein (residues 26 to 44) (SEQ ID NO:2). […] Treatment with the ARF-derived peptide and trastuzumab led to a 90% reduction in cell numbers in both SKBR3 and MDA-MB-453 resistant cells as measured by colony forming assays (following the same protocol as described above in Example 5) (FIG. 6A).

[9] = tested on: SKBR3 resistant cells; test: as above; assay type: cell-based, human; settings: with trastuzumab; peptide 2 μM
Description: as §2, §3, §4

[10] = tested on: SKBR3-pBabe and FoxM1 cells; test: surviving cells after ARF-peptide added to HERCEPTIN, paclitaxel or combination; assay type: cell-based, human
Description: as §2
The ability of the ARF-peptide to sensitize FoxM1-expressing cells to treatment was also investigated.

[11] = FoxM1-expressing cells, with HERCEPTIN and paclitaxel combination treatment

## 5′ GGACCACUUUCCCUACUUUUU 3′ (listed as RNA, chemistry not given here) [FoxM1 targeting siRNA]
[1]
  DNMT3b binding to GATA-3 promoter at −747 and −1431: significantly decreased
[2]
  Rb binding to GATA-3 promoter: could not bind to the GATA-3 promoter
[3]
  reduction in cell number: more than 75%

## CC(=O)O[C@H]1C(=O)[C@@]2(C)[C@H]([C@H](OC(=O)c3ccccc3)[C@]3(O)C[C@H](OC(=O)[C@H](O)[C@@H](NC(=O)c4ccccc4)c4ccccc4)C(C)=C1C3(C)C)[C@]1(OC(C)=O)CO[C@@H]1C[C@@H]2O [paclitaxel]
[4]
  higher dose required to produce the same effect: 100 fold
[5]; FoxM1-expressing cells after paclitaxel treatment
  ratio for β-tubulin: did not show a significant change
[5]; SKBR3-pBabe cells after paclitaxel treatment
  α- and β-tubulin distribution: dramatic shift towards the polymerized fraction
[6]; SK-BR-3, SKBR3 cells transfected with FoxM1-specific siRNA 72 hours
  IC50: 10 nM
[6]; SK-BR-3, SKBR3 cells transfected with control siRNA 72 hours
  IC50: 60 nM
[6]; SKBR3-FoxM1 cells
  cells survived: ~50%
[6]; SKBR3-pBabe cells
  cells survived: 25%

## ARF-derived peptide: cell-penetrating peptide inhibitor of FoxM1 containing a 19-amino acid region of the p19ARF protein (residues 26 to 44) (KFVRSRRPRTASCALAFVN; not fully specified; UniProt Q64364 26-44, looked up, fragment)
[7]
  proliferation and apoptosis of hepatocellular carcinoma cells in vivo: reduce proliferation and induce apoptosis
[8]
  reduction in cell numbers: 90%
[9]
  reduction in cell numbers: 90%
[10]; [11]
  cell killing: more than 97%
  cells surviving: less than 3%
[10]; added to HERCEPTIN, paclitaxel, or combination treatment, three days
  cell number compared to mutant peptide: dramatic reduction in cell number
[10]; pBabe cells, all treatments
  cell killing at the same dosage compared to mutant peptide: greater cell killing
